According to patent publication US20240182445A1 (ONO PHARMACEUTICAL CO., LTD., priority 2019, published 2024):

Target: T1, human TREK-1 (Homo sapiens, UniProt O95069)
T1 construct: expressed in transfected cells
T1 sequence (O95069 1-426): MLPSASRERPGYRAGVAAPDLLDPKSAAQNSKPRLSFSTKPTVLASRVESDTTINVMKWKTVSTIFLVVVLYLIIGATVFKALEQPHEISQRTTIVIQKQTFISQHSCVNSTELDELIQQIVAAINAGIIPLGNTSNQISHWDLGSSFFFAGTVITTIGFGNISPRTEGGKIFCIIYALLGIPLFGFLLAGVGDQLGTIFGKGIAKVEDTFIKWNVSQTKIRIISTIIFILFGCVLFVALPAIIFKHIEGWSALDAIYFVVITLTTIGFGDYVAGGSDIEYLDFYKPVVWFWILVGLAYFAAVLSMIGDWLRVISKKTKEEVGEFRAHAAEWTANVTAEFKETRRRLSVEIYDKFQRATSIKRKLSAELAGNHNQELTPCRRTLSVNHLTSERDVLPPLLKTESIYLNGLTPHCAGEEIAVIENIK
Test: TREK-1 Thallium (Tl+) flux assay, Method 1
Format: cell-based
Details: TREK-1 Thallium (Tl+) flux assay; no *^12 (Method 2) mark on these rows
Summary of the method: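 CHO-K1 cells stably expressing human TREK-1, loaded with Thallos dye, received compound or 0.3% DMSO vehicle for 10 min before thallium stimulus buffer. ΔRatio is fluorescence at 25 s after thallium addition over mean pre-addition fluorescence; % inhibition calculated from it.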

In the case of `Cc1cc(C#Cc2ccccc2)cnc1NC(=O)c1c(Cl)cnn1CC1(C)CCN(C(=O)OC(C)(C)C)CC1` [Compound 301, tert-butyl 4-((4-chloro-5-((3-methyl-5-(phenylethynyl)pyridin-2-yl)carbamoyl)-1H-pyrazol-1-yl)methyl)-4-methylpiperidine-1-carboxylate], the IC50 is reported as 0.54 µM.

`Cc1cc(C#Cc2ccc(F)cc2)cnc1NC(=O)c1c(Cl)cnn1CC1(F)CCN(C(=O)C2CC2)CC1` [Compound 302, 4-chloro-1-((1-(cyclopropanecarbonyl)-4-fluoropiperidin-4-yl)methyl)-N-(5-((4-fluorophenyl)ethynyl)-3-methylpyridin-2-yl)-1H-pyrazole-5-carboxamide] was tested, and the IC50 was 0.55 µM.

In the case of `CC(=O)N1CCN(CCn2ncc(Cl)c2C(=O)Nc2ncc(C#Cc3ccccc3)cc2C)CC1` [Compound 303, 1-(2-(4-acetylpiperazin-1-yl)ethyl)-4-chloro-N-(3-methyl-5-(phenylethynyl)pyridin-2-yl)-1H-pyrazole-5-carboxamide], the IC50 is reported as 0.56 µM.

In the case of `Cc1cc(C#Cc2ccccc2)cnc1NC(=O)c1c(Cl)cnn1-c1ccc2occc2c1` [Compound 304, 1-(benzofuran-5-yl)-4-chloro-N-(3-methyl-5-(phenylethynyl)pyridin-2-yl)-1H-pyrazole-5-carboxamide], the IC50 is reported as 0.57 µM.

`Cc1cc(C#Cc2ccc(F)cc2)cnc1NC(=O)c1c(Cl)cnn1C1CCN(C(=O)C(C)C)C1` (stereo not shown) [Compound 305, 4-chloro-N-(5-((4-fluorophenyl)ethynyl)-3-methylpyridin-2-yl)-1-(1-isobutyrylpyrrolidin-3-yl)-1H-pyrazole-5-carboxamide] showed an IC50 of 0.57 µM.

Work on `Cc1cc(C#Cc2ccccc2)cnc1NC(=O)c1c(Cl)cnn1C1CCOC1` (stereo not shown) [Compound 306, 4-chloro-N-(3-methyl-5-(phenylethynyl)pyridin-2-yl)-1-(tetrahydrofuran-3-yl)-1H-pyrazole-5-carboxamide] yielded an IC50 of 0.58 µM.

Compound `Cc1cc(C#Cc2ccccc2)cnc1NC(=O)c1c(Cl)cnn1C1CCN(C(=O)OC(C)(C)C)C1` (stereo not shown) [Compound 307, tert-butyl 3-(4-chloro-5-((3-methyl-5-(phenylethynyl)pyridin-2-yl)carbamoyl)-1H-pyrazol-1-yl)pyrrolidine-1-carboxylate] has an IC50 of 0.58 µM.

In the case of `Cc1cc(C#Cc2ccccc2)cnc1NC(=O)c1c(Cl)cnn1CCC1CCN(C(=O)OC(C)(C)C)CC1` [Compound 308, tert-butyl 4-(2-(4-chloro-5-((3-methyl-5-(phenylethynyl)pyridin-2-yl)carbamoyl)-1H-pyrazol-1-yl)ethyl)piperidine-1-carboxylate], the IC50 is reported as 0.58 µM.

`Cc1cc(C#Cc2ccccc2)cnc1NC(=O)c1c(Cl)cnn1[C@H]1CC[C@@H](NC(=O)OC(C)(C)C)CC1` [Compound 309, Tert-butyl (cis-4-(4-chloro-5-((3-methyl-5-(phenylethynyl)pyridin-2-yl)carbamoyl)-1H-pyrazol-1-yl)cyclohexyl)carbamate] showed an IC50 of 0.58 µM.

`Cc1cc(C#Cc2ccc(F)cc2)cnc1NC(=O)c1c(Cl)cnn1C1CC2(CCN(C(=O)C3COCCO3)C2)C1` (stereo not shown) [Compound 310, 4-chloro-1-[6-(1,4-dioxane-2-carbonyl)-6-azaspiro[3.4]octan-2-yl]-N-{5-[(4-fluorophenyl)ethynyl]-3-methylpyridin-2-yl}-1H-pyrazole-5-carboxamide] showed an IC50 of 0.58 µM.

For `CC(=O)N1CCC(CCn2ncc(Cl)c2C(=O)Nc2ncc(C#Cc3cccs3)cc2F)CC1` [Compound 311, 1-(2-(1-acetylpiperidin-4-yl)ethyl)-4-chloro-N-(3-fluoro-5-(thiophen-2-ylethynyl)pyridin-2-yl)-1H-pyrazole-5-carboxamide], the IC50 was 0.59 µM.

`CC(=O)N1CCC2(CC(n3ncc(Cl)c3C(=O)Nc3ncc(C#Cc4ccc(F)cc4)cc3C)C2)C1` (stereo not shown) [Compound 312, 1-(6-acetyl-6-azaspiro[3.4]octan-2-yl)-4-chloro-N-{5-[(4-fluorophenyl)ethynyl]-3-methylpyridin-2-yl}-1H-pyrazole-5-carboxamide] gave an IC50 of 0.59 µM.

`CC(=O)N1CCC(Cn2ncc(Cl)c2C(=O)Nc2ncc(C#Cc3ccc(F)cc3)cc2C)C(F)(F)C1` (stereo not shown) [Compound 313, 1-((1-acetyl-3,3-difluoropiperidin-4-yl)methyl)-4-chloro-N-(5-((4-fluorophenyl)ethynyl)-3-methylpyridin-2-yl)-1H-pyrazole-5-carboxamide] showed an IC50 of 0.59 µM.

For `Cc1cc(C#Cc2ccc(F)cc2)cnc1NC(=O)c1c(Cl)cnn1CC1C2CC1CN(C(=O)C(C)C)C2` (stereo not shown) [Compound 314, 4-chloro-N-(5-((4-fluorophenyl)ethynyl)-3-methylpyridin-2-yl)-1-((3-isobutyryl-3-azabicyclo[3.1.1]heptan-6-yl)methyl)-1H-pyrazole-5-carboxamide], the IC50 was 0.59 µM.

With `CC(C)(C)OC(=O)N1CC[C@H](n2ncc(Cl)c2C(=O)Nc2ncc(C#Cc3ccccc3)cc2F)C1` [Compound 315, tert-butyl (S)-3-(4-chloro-5-((3-fluoro-5-(phenylethynyl)pyridin-2-yl)carbamoyl)-1H-pyrazol-1-yl)pyrrolidine-1-carboxylate] the IC50 was 0.6 µM.

Work on `Cc1ccc(C#Cc2cnc(NC(=O)c3c(Cl)cnn3[C@H]3CCOC3)c(C)c2)cc1` [Compound 316, (S)-4-chloro-N-(3-methyl-5-(p-tolylethynyl)pyridin-2-yl)-1-(tetrahydrofuran-3-yl)-1H-pyrazole-5-carboxamide] yielded an IC50 of 0.61 µM.

`Cc1cc(C#Cc2ccccc2)cnc1NC(=O)c1c(Cl)cnn1[C@H]1C[C@@H]2CN(C(=O)C(C)C)C[C@@H]2C1` [Compound 317, 4-chloro-N-[3-methyl-5-(phenylethynyl)pyridin-2-yl]-1-[(3aR,5s,6aS)-2-(2-methylpropanoyl)octahydrocyclopenta [c]pyrrol-5-yl]-1H-pyrazole-5-carboxamide] showed an IC50 of 0.61 µM.

With `CC1CN(C(=O)OC(C)(C)C)CCC1Cn1ncc(Cl)c1C(=O)Nc1ncc(C#Cc2ccccc2)cc1F` (stereo not shown) [Compound 318, tert-butyl 4-((4-chloro-5-((3-fluoro-5-(phenylethynyl)pyridin-2-yl)carbamoyl)-1H-pyrazol-1-yl)methyl)-3-methylpiperidine-1-carboxylate] the IC50 was 0.61 µM.

`Cc1cc(C#Cc2ccc(F)cc2)cnc1NC(=O)c1c(Cl)cnn1C[C@H]1CCCN(C(=O)C(C)C)C1` [Compound 320, (S)-4-chloro-N-(5-((4-fluorophenyl)ethynyl)-3-methylpyridin-2-yl)-1-((1-isobutyrylpiperidin-3-yl)methyl)-1H-pyrazole-5-carboxamide] gave an IC50 of 0.62 µM.

`Cc1cc(C#Cc2ccccc2)cnc1NC(=O)c1c(Cl)cnn1CCC1CCCO1` (stereo not shown) [Compound 321, 4-chloro-N-(3-methyl-5-(phenylethynyl)pyridin-2-yl)-1-(2-(tetrahydrofuran-2-yl)ethyl)-1H-pyrazole-5-carboxamide] showed an IC50 of 0.63 µM.

Work on `Cc1cc(C#Cc2ccc(F)cc2)cnc1NC(=O)c1c(Cl)cnn1[C@H]1CCOC1` [Compound 322, (S)-4-chloro-N-(5-((4-fluorophenyl)ethynyl)-3-methylpyridin-2-yl)-1-(tetrahydrofuran-3-yl)-1H-pyrazole-5-carboxamide] yielded an IC50 of 0.63 µM.

In the case of `Cc1cc(C#Cc2ccccc2)cnc1NC(=O)c1c(Cl)cnn1CCN1CCN(C(=O)OC(C)(C)C)CC1` [Compound 323, tert-butyl 4-(2-(4-chloro-5-((3-methyl-5-(phenylethynyl)pyridin-2-yl)carbamoyl)-1H-pyrazol-1-yl)ethyl)piperazine-1-carboxylate], the IC50 is reported as 0.63 µM.

With `CC(C)(C)OC(=O)N[C@H]1C[C@@H](n2ncc(Cl)c2C(=O)Nc2ncc(C#Cc3ccccc3)cc2F)C1` [Compound 325, tert-butyl (cis-3-(4-chloro-5-((3-fluoro-5-(phenylethynyl)pyridin-2-yl)carbamoyl)-1H-pyrazol-1-yl)cyclobutyl)carbamate] the IC50 was 0.64 µM.

`CC(=O)N1CC2CC(C1)C2Cn1ncc(Cl)c1C(=O)Nc1ncc(C#Cc2ccccc2)cc1F` (stereo not shown) [Compound 326, 1-((3-acetyl-3-azabicyclo[3.1.1]heptan-6-yl)methyl)-4-chloro-N-(3-fluoro-5-(phenylethynyl)pyridin-2-yl)-1H-pyrazole-5-carboxamide] gave an IC50 of 0.64 µM.

Work on `Cc1cc(C#Cc2ccccc2)cnc1NC(=O)c1c(Cl)cnn1C1CCCOC1` (stereo not shown) [Compound 327, 4-chloro-N-(3-methyl-5-(phenylethynyl)pyridin-2-yl)-1-(tetrahydro-2H-pyran-3-yl)-1H-pyrazole-5-carboxamide] yielded an IC50 of 0.65 µM.

`Cc1cc(C#Cc2ccccc2)cnc1NC(=O)c1c(Cl)cnn1C1CCN(C(=O)OC(C)(C)C)CC1` [Compound 328] gave an IC50 of 0.65 µM.

Work on `Cc1cc(C#Cc2ccccc2)cnc1NC(=O)c1c(Cl)cnn1[C@H]1C[C@@H]2CN(C(=O)OC(C)(C)C)C[C@@H]2C1` [Compound 329, tert-butyl (3aR,5s,6aS)-5-(4-chloro-5-{[3-methyl-5-(phenylethynyl)pyridin-2-yl]carbamoyl}-1H-pyrazol-1-yl)hexahydrocyclopenta[c]pyrrole-2(1H)-carboxylate] yielded an IC50 of 0.65 µM.

With `Cc1cc(C#Cc2ccccc2)cnc1NC(=O)c1c(Cl)cnn1C1CC2(C1)CN(C(=O)OC(C)(C)C)C2` [Compound 330, tert-butyl 6-(4-chloro-5-((3-methyl-5-(phenylethynyl)pyridin-2-yl)carbamoyl)-1H-pyrazol-1-yl)-2-azaspiro[3.3]heptane-2-carboxylate] the IC50 was 0.65 µM.
